Test results reported in patent publication US20230346743A1, “COMBINATION CANCER THERAPIES” (The Board of Regents of the University of Oklahoma, priority 2018, published 2023).
pIC50: −log10 of the molar value.

Tests used:
[1] = tested on: A2780 (WT p53); assay: MTT cytotoxicity assay and Chou-Talalay drug interaction; format: cell-based, human
Protocol: (§1) Cells plated at 2000 cells/well in 96 well microtiter plates were incubated for 36-48 h and treated with a range of doses and combinations of SHetA2 and PRIMA-1 or PRIMA-1^MET, or the same volume of DMSO solvent for 72 h of incubation. The percentage of growth for single drug treatments or fold effect (1 - ratio of treated/untreated growth) was measured using the CellTiter 96 AQueous Non-Radioactive Cell Proliferation Assay (Promega, Madison, WI, USA) and the BioTeK SYNERGY H1 (BioTeK, Winooski, VT, USA). Each experiment was performed in triplicate and repeated 2-3 times.
(§2) The potencies (IC50′s) of SHetA2 or PRIMA-1 were determined using GraphPad Prism 6 software analysis of average MTT Optical Density vs drug dose. […] Single drug treatments at doses surrounding the IC50 values were evaluated parallel. All treatments were performed in triplicate and averages used to draw isobolograms and calculate combination indices (CI) and dose-reduction indices (DRIs) using CompuSyn Software according to the Chou and Talalay method (op cit). All experiments were repeated at least twice for each cell line to confirm results.

[2] = tested on: FTSECs; assay: as above; format: cell-based, human; details: hFTSECs
Protocol: as §1, §2

[3] = tested on: MESOV human ovarian cancer cells; assay: Tumor establishment after intraperitoneal injection of MESOV cells (secondary chemoprevention model); format: in vivo; details: nu/nu mice, MESOV i.p.
Protocol: Four-week-old female athymic nude mice (NCr-Foxn1^nu) were obtained from Taconic Biosciences under an approved Institutional Animal Care and Use Committee (IACUC) protocol. Mice were acclimatized for two weeks, fed with a standard diet and ear tagged during the acclimatization period. The timing to tumor development after intraperitoneal injection with various amounts of MESOV cells was determined in a pilot study prior. In the intervention experiment, 6-week-old mice were injected with 20 million MESOV human ovarian cancer cells in their intraperitoneal region. Drug treatment was initiated 4 weeks after the injection of cancer cells. Mice were randomized to four treatment groups before the start of treatment based on their body weight. There was no significant (one-way ANOVA, p >0.999) difference in body weight between groups at the start of treatment. Twelve mice were allocated to each group based on the power analysis performed while designing experiment. […] Controls were gavaged with Kolliphor HS15 (30% in water). […] (10 mg/kg) was dissolved in phosphate buffered saline and injected into the peritoneum of mice every other day. Initially SHetA2 dosing was administered every day for two weeks in SHetA2 alone and drug combination groups, and then switched to every other day for the next three weeks due to the stress caused to the mice by daily gavage. Oral gavaging was performed with sterile disposable plastic feeding tubes 20 ga × 38 mm (Instech Laboratories, Inc., Plymouth Meeting, PA, USA). Three mice in the drug combination group died after two weeks of drug treatment due to gavaging incidents. Body weights were recorded and animal health was monitored weekly. After the end of drug intervention period, all mice were euthanized by CO2 asphyxiation followed by exsanguination, their tumors and other vital organs were collected for further analysis. After measuring the total tumor weight, a portion of the tumors were snap frozen in liquid nitrogen and another portion was formalin fixed. The formalin fixed tissue samples were paraffin embedded, sectioned and stained with hematoxylin and eosins for histology studies. An experienced pathologist reviewed blinded histology slides for kidney and liver toxicity. Presence or absence of tumor at the end of the treatment period was used as the primary outcome measure. […] Two by two logistic regression was used to compare the four treatment groups (Untreated control, SHetA2, […] combination) in the study. Mice in the first 3 groups had complete data, while 3 mice in the combo group died early and had zero tumor weights. […]

[4] = tested on: SiHa cervical cancer cell line xenograft; assay: SiHa xenograft tumor growth; format: in vivo, mice; details: gavage 60 mg/kg SHetA2, 100 mg/kg palbociclib or the combination every other day
From the text: FIG. 49. […] Controls were gavaged with the same Kolliphor HS15 used to suspend the drugs. Using a generalized estimating equations (GEE) model to analyze tumor growth treated as a continuous variable, there was a significant additive effect of SHetA2 (p<0.001) and palbociclib (p<0.001) on day 65 of treatment. This additive effect between SHetA2 (p=0.001) and palbociclib (p=0.051) was trending significant at day 63 of treatment. Additionally, SHetA2 starts to show significant tumor suppressing activity as early as day 63 of treatment (p=0.045).

[5] = tested on: p21; assay: Western blots of p21 in ovarian cancer cell lines; format: cell-based, human; details: A2780, SKOV3, SKOV3 R273H, SKOV3 R248W
Protocol: Proteins were extracted from cell cultures using M-PER mammalian protein extraction reagent (ThermoFisher, Waltham, MA, USA) and volumes corresponding to 30 µg determined with BCA reagent (ThermoFisher, Waltham, MA, USA) were electrophoresed into a SDS-PAGE gel and transferred to PVDF membranes. Membranes were blocked (5% dry skim milk powder in TBST buffer) for at least 1 h or overnight, washed thrice with TBST and then incubated with primary antibody: p53 DO-1, β-actin, histone H3, GAPDH (Santa Cruz Biotechnology, Dallas, TX, USA) and mortalin, Tom20, V5 tag antibodies, p21, PARP, SLC7A11, caspase 3 (Cell Signaling Technology, Danvers, MA, USA) for at least 1 h or overnight. After three washes, membranes were incubated with anti-mouse HRP conjugated (Santa Cruz Biotechnology, Dallas, TX, USA) or anti-Rabbit HRP conjugated (Cell Signaling Technology, Danvers, MA, USA) for 40 min. Membranes then were washed and developed with ECL reagents (BioRad, Hercules, CA, USA). Bands were imaged and quantified (ChemiDoc imaging system with Image Lab Software/BioRad).

[6] = tested on: NCI 60-cell line panel; details: cited from earlier work

For `CC1(C)CC(C)(C)c2cc(NC(=S)Nc3ccc([N+](=O)[O-])cc3)ccc2S1` [SHetA2], the pIC50 ([1]; A2780 cells with shRNA knockdown of p53, MTT) was 5.32, the pIC50 ([1]; A2780 cells without p53 knockdown (empty vector), MTT) was 5.55 and the “SHetA2 sensitivity compared with ovarian cancer cell lines” value [2] was “least sensitive”. For the same compound, the “OR for preventing tumor development (additive logistic regression model)” value [3] was 10.384, the Tumor-free rates ([3]; SHetA2 60 mg/kg gavage, PRIMA-1^MET 10 mg/kg i.p., treatment from day 28 for 38 days) was 42% and the “SiHa xenograft tumor growth” value [4] was “significantly reduce SiHa cervical cancer cell line xenograft tumor growth”. For the same compound, the “p21 protein (Western blot)” value [5] was “increased p21 protein in all cell lines evaluated regardless of p53 status” and the “Activity against cancer cell lines” value [6] was “active against all cancers present in the NCI 60-cell line panel”.
